Experiment [1] deals with T1, Ba/F3 cells TPM3-TRKA (Homo sapiens, UniProt P04629).
T1 construct: host or cells: Ba/F3 (RIKEN), retroviral pMSCV-puro; the other entry of the earlier key: TPM3 (P06753, Tropomyosin alpha-3 chain)
In words: Ba/F3 cell proliferation assay, TPM3-TRKA. Format: cell-based. The settings on record: 72 hours, CellTiter-Glo, read-out: TPM3-NTRK1-wt IC50. A digest of the protocol:
(§1)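 Proliferation of fusion-driven Ba/F3 monoclones (grown without IL-3, puromycin 0.8 μg/mL) is followed over 72 hours of treatment with a 3-fold compound dilution series. ATP content is read by CellTiter-Glo luminescence, and IC50 is derived by four-parameter logistic fitting of percent inhibition.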

Experiment [2] deals with T2, Ba/F3 cells EML4-ALK L1196M/G1202R (variant 1) (Homo sapiens, UniProt Q9UM73, G1202R/L1196M).
T2 construct: echinoderm microtubule-associated protein-like 4 (EML4) gene and the ALK tyrosine kinase domain; host or cells: Ba/F3 (RIKEN), retroviral pMSCV-puro; the other entry of the earlier key: EML4 (Q9HC35, Echinoderm microtubule-associated protein-like 4)
In words: Ba/F3 cell proliferation assay, EML4-ALK L1196M/G1202R (variant 1). Format: cell-based. The settings on record: 72 hours, CellTiter-Glo. The gist of the method:
as §1

In experiment [3] the target is T3, ROS1-wt (Homo sapiens, UniProt P08922).
T3 construct: purchased Carna 08-163
In words: Biochemical kinase assay, ROS1-wt kinase domain. The settings on record: apparent inhibitory constant, Morrison equation; ATP 2 mM in substrate solution; read-out: ROS1-wt Ki^app. A digest of the protocol:
(§2)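 Compounds, as 100-fold DMSO stocks, were dispensed first, then substrate mix was added (ATP 2 mM, AQT0101 26 μM, in 50 mM HEPES pH 7.5/10 mM MgCl2). Reactions ran at 30 °C with fluorescence logged every 2 min over 120 min. Apparent inhibition constants came from fitting rates to Morrison's tight-binding equation.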

Experiment [4] addresses T4, Ba/F3 cells CD74-ROS1 G2032R (Homo sapiens, UniProt P08922, G2032R).
T4 construct: fusion of the C-terminus of ROS1 with the N-terminus of various partner proteins; host or cells: Ba/F3 (RIKEN), retroviral pMSCV-puro; the other entry of the earlier key: CD74 (P04233, HLA class II histocompatibility antigen gamma chain)
In words: Ba/F3 cell proliferation assay, CD74-ROS1 G2032R. The format is cell-based. As to conditions: 72 hours, CellTiter-Glo. The gist of the method:
(§3)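 Cells seeded 1 day, then treated with 3-fold compound dilutions for 72 h; viability by CellTiter-Glo luminescence. IC50 from percent inhibition by four-parameter logistic fit.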

The target of experiment [5] is T5, Ba/F3 cells EML4-ALK wt (variant 1) (Homo sapiens, UniProt Q9UM73).
T5 construct: echinoderm microtubule-associated protein-like 4 (EML4) gene and the ALK tyrosine kinase domain; host or cells: Ba/F3 (RIKEN), retroviral pMSCV-puro; the other entry of the earlier key: EML4 (Q9HC35, Echinoderm microtubule-associated protein-like 4)
In words: Ba/F3 cell proliferation assay, EML4-ALK wt (variant 1). The format is cell-based. The settings on record: 72 hours, CellTiter-Glo. A digest of the protocol: as §1

The target in experiment [6] is T6, ALK-wt (Homo sapiens, UniProt Q9UM73).
T6 construct: purchased Carna 08-518
The experiment in a line: Biochemical kinase assay, ALK-wt kinase domain. The settings on record: apparent inhibitory constant, Morrison equation; ATP 2 mM in substrate solution; read-out: ALK-wt Ki^app. A digest of the protocol: (§4)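 Apparent Ki values come from fitting initial reaction rates against inhibitor concentration to the Morrison equation. Rates were taken from the linear phase of fluorogenic substrate phosphorylation (AQT0101 for ALK and ROS1, AQT0104 for TRKA; 26 μM in substrate solution with 2 mM ATP), monitored at 485 nm over 120 min at 30° C.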

Experiment [7] concerns the target T7, Ba/F3 cells CD74-ROS1 wild-type (wt) (Homo sapiens, UniProt P08922).
T7 construct: fusion of the C-terminus of ROS1 with the N-terminus of various partner proteins; host or cells: Ba/F3 (RIKEN), retroviral pMSCV-puro; the other entry of the earlier key: CD74 (P04233, HLA class II histocompatibility antigen gamma chain)
In words: Ba/F3 cell proliferation assay, CD74-ROS1 wild-type. Format: cell-based. As to conditions: 72 hours, CellTiter-Glo. A digest of the protocol: as §3

The target of experiment [8] is T8, ALK L1196M/G1202R (Homo sapiens, UniProt Q9UM73, G1202R/L1196M).
T8 construct: purchased SignalChem A19-12NG
The experiment in a line: Biochemical kinase assay, ALK L1196M/G1202R kinase domain. The settings on record: apparent inhibitory constant, Morrison equation; ATP 2 mM in substrate solution; read-out: ALK-L1196M-G1202R Ki^app. The gist of the method:
as §4

Experiment [9] addresses T9, TRKA-wt (Homo sapiens, UniProt P04629).
T9 construct: or TRKA-wt (1 nM, BPS Bio, 40280) kinase domains in buffer; purchased BPS Bio 40280
The experiment in a line: Biochemical kinase assay, TRKA-wt kinase domain. As to conditions: apparent inhibitory constant, Morrison equation; ATP 2 mM in substrate solution; read-out: TRKA-wt Ki^app. A digest of the protocol: as §4

The target in experiment [10] is T10, ROS1-G2032R (Homo sapiens, UniProt P08922, G2032R).
T10 construct: purchased SignalChem R14-12BG
In words: Biochemical kinase assay, ROS1-G2032R kinase domain. The settings on record: apparent inhibitory constant, Morrison equation; ATP 2 mM in substrate solution; read-out: ROS1-G2032R Ki^app. The gist of the method:
as §2

Experiment [11] deals with TPM3-NTRK1-wt IC50 / primary target IC50 (e.g. CD74-ROS1-wt). In words: TRKA selectivity in Ba/F3 cells (TRKA potency divided by primary target potency). The format is cell-based. As to conditions: for TPM3-NTRK1-wt/CD74-ROS1-G2032R selectivity ratio: TRKA potency / CD74-ROS1-G2032R potency; for TPM3-NTRK1-wt/CD74-ROS1-wt selectivity ratio: TRKA potency / CD74-ROS1-wt potency; for TPM3-NTRK1-wt/EML4-ALK-L1196M-G1202R selectivity ratio: TRKA potency / EML4-ALK-L1196M-G1202R potency; for TPM3-NTRK1-wt/EML4-ALK-wt selectivity ratio: TRKA potency / EML4-ALK-wt potency. The procedure:
TRKA selectivity was calculated by dividing a compound's TRKA potency by its primary target potency (e.g. TPM3-NTRK1-wt IC50/CD74-ROS1-wt IC50). Compound selectivity can be interpreted by binning ratio values: bin A for very high selectivity, ratio >30-fold; bin B for high selectivity, ratio >10-fold; bin C for moderate selectivity, ratio ≥1; and bin D for low selectivity, ratio <1. […] (nd=not determined).

Structures are written as SMILES. Bounds are passed on as bounds.

T5 sequence (Q9UM73 with tags, fused parts or gaps): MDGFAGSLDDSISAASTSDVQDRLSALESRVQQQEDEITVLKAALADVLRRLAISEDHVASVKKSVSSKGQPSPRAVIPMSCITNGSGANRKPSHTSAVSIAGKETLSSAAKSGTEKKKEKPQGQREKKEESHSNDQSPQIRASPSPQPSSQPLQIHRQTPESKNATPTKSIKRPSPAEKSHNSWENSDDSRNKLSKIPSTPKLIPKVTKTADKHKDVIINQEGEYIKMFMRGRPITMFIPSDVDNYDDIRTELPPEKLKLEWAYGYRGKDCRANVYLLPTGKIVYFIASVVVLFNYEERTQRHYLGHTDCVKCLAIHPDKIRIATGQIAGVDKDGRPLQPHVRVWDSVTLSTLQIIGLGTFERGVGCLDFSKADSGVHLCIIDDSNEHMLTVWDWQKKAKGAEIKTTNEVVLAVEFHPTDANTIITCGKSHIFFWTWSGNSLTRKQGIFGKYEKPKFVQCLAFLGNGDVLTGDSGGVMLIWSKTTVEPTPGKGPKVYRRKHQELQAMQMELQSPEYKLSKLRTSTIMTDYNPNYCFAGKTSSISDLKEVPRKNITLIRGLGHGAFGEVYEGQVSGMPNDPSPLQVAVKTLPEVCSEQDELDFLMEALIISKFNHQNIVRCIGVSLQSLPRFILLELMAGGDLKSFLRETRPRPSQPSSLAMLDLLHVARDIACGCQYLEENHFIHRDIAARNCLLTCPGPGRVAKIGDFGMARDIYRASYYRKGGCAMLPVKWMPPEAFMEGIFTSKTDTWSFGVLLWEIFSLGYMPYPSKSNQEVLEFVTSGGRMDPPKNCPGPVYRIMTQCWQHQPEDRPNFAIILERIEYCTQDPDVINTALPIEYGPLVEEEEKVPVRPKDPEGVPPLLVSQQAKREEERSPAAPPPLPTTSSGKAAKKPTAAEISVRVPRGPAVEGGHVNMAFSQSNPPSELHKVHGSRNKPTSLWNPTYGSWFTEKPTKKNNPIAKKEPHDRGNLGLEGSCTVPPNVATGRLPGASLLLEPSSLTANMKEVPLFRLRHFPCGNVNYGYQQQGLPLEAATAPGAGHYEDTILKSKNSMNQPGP
T3 sequence (P08922 1945-2222 limits assumed): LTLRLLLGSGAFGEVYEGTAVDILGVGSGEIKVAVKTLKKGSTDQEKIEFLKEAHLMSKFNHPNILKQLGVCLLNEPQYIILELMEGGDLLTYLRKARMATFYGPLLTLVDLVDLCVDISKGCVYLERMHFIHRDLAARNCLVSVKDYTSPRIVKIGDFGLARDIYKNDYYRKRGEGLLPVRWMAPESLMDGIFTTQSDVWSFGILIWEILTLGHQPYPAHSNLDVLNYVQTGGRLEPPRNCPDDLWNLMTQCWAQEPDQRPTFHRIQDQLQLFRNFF
T6 sequence (Q9UM73 1116-1392 limits assumed): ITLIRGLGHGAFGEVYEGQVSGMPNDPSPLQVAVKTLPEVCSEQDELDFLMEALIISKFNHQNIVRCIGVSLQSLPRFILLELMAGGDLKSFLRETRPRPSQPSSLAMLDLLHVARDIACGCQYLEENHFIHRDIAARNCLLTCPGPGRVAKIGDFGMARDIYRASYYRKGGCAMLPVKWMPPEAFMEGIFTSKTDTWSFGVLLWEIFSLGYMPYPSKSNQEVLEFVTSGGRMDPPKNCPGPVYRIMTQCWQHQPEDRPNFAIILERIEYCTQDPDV
T1 sequence (P04629 510-796 limits assumed): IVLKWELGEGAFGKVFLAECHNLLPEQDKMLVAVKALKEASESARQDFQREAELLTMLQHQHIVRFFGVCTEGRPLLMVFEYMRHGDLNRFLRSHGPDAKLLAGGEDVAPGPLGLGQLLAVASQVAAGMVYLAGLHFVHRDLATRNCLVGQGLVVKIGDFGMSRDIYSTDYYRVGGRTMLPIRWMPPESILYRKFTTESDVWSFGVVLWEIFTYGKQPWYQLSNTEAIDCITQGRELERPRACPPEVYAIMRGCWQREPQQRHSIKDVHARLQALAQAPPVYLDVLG
T8 sequence (Q9UM73 1116-1392 L1196M/G1202R limits assumed): as the sequence (Q9UM73 1116-1392 limits assumed) above, with L81M, G87R counted along it
T9 sequence (P04629 510-781 limits assumed): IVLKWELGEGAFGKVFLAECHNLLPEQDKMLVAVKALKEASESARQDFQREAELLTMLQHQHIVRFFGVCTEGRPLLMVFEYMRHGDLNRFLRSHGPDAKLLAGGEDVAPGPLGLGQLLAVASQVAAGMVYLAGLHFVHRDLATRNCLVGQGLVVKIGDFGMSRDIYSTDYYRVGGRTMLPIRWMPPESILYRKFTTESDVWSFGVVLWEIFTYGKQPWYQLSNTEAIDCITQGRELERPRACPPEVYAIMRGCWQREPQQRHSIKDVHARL
T2 sequence (Q9UM73 with tags, fused parts or gaps L1196M/G1202R): as the sequence (Q9UM73 with tags, fused parts or gaps) above, with L635M, G641R counted along it
T4 sequence (P08922 1883-2347 G2032R limits assumed): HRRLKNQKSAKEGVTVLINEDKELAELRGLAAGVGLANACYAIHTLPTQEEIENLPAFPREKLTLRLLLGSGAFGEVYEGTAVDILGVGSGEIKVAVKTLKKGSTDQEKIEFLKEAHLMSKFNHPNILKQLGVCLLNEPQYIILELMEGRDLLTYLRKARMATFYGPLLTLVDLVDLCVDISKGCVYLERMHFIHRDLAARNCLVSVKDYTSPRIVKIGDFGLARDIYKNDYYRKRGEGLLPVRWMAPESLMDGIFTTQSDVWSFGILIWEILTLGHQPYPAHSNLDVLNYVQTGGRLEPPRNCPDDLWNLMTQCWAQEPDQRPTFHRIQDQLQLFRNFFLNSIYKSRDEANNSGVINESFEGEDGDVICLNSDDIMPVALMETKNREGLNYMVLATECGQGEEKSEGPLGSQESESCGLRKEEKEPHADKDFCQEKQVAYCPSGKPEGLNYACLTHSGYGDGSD
T7 sequence (P08922 1883-2347 limits assumed): as the sequence (P08922 1883-2347 G2032R limits assumed) above, with R150G counted along it
T10 sequence (P08922 1945-2222 G2032R limits assumed): as the sequence (P08922 1945-2222 limits assumed) above, with G88R counted along it

Take `CCn1nc(C(F)(F)F)c2c1-c1cnc(N)c(c1)O[C@H](C)c1cc(F)ccc1-c1nn(C)nc1C2` [Example 80, (19R)-3-ethyl-16-fluoro-10,19-dimethyl-5-(trifluoromethyl)-20-oxa-3,4,9,10,11,23-hexaazapentacyclo[19.3.1.0^2,^6.0^8,^12.0^13,^18]pentacosa-1(24),2(6),4,8,11,13,15,17,21(25),22-decaen-22-amine]: the IC50 in experiment [1] was greater than 500 nM; in [2], greater than 500 nM; in [4] it was 0.1 to 50 nM; in experiment [5] it was 50 to 500 nM; in experiment [7], 0.1 to 50 nM. For the same molecule, the Ki is less than 50 nM in experiment [3]; less than 50 nM in [6]; 50 to 500 nM in [8]; greater than 500 nM in experiment [9]; 50 to 500 nM in [10]. In addition, in [11], the TPM3-NTRK1-wt/CD74-ROS1-G2032R selectivity ratio result was “A (bin A for very high selectivity, ratio >30-fold)”. Also, the TPM3-NTRK1-wt/CD74-ROS1-wt selectivity ratio result in [11] is recorded as “A (bin A for very high selectivity, ratio >30-fold)”. Also, in experiment [11], the TPM3-NTRK1-wt/EML4-ALK-L1196M-G1202R selectivity ratio entry is “C (bin C for moderate selectivity, ratio ≥1)”. For the same molecule, in experiment [11], the TPM3-NTRK1-wt/EML4-ALK-wt selectivity ratio result is given as “B (bin B for high selectivity, ratio >10-fold)”.

For `Cc1nn(CC2CC2)c2c1Cc1nn(C)nc1-c1c(F)cc(F)cc1[C@@H](C)Oc1cc-2cnc1N` [Example 82, (19R)-3-(cyclopropylmethyl)-14,16-difluoro-5,10,19-trimethyl-20-oxa3,4,9,10,11,23-hexaazapentacyclo[19.3.1.0^2,^6.0^8,^12.0^13,^18]pentacosa 1(24),2(6),4,8,11,13,15,17,21(25),22-decaen-22-amine], the IC50 in [1] was greater than 500 nM; in experiment [2] it was 50 to 500 nM; in experiment [4], 0.1 to 50 nM; in experiment [5], 0.1 to 50 nM; in experiment [7], 0.1 to 50 nM. In addition, the Ki in experiment [3] was less than 50 nM; in experiment [6], less than 50 nM; in [8], less than 50 nM; in [9], greater than 500 nM; in experiment [10] it was less than 50 nM. Besides, in experiment [11], the TPM3-NTRK1-wt/CD74-ROS1-G2032R selectivity ratio entry was “A (bin A for very high selectivity, ratio >30-fold)”. Further, in experiment [11], the TPM3-NTRK1-wt/CD74-ROS1-wt selectivity ratio entry is “A (bin A for very high selectivity, ratio >30-fold)”. Besides, the TPM3-NTRK1-wt/EML4-ALK-L1196M-G1202R selectivity ratio result in experiment [11] is “A (bin A for very high selectivity, ratio >30-fold)”. For the same molecule, the TPM3-NTRK1-wt/EML4-ALK-wt selectivity ratio result in experiment [11] is listed as “A (bin A for very high selectivity, ratio >30-fold)”.

With `C[C@H]1Oc2cc(cnc2N)-c2c(cnn2C2COC2)Cc2nn(C)nc2-c2ccc(F)cc21` [Example 83, (19R)-16-fluoro-10,19-dimethyl-3-(oxetan-3-yl)-20-oxa-3,4,9,10,11,23-hexaazapentacyclo[19.3.1.0^2,^6.0^8,^12.0^13,^18]pentacosa-1(24),2(6),4,8,11,13,15,17,21(25),22-decaen-22-amine], the IC50 in experiment [1] is 50 to 500 nM; in experiment [2] it was 50 to 500 nM; in experiment [4], 0.1 to 50 nM; in [5], 0.1 to 50 nM; in experiment [7], 0.1 to 50 nM. For the same molecule, the Ki in experiment [3] was less than 50 nM; in experiment [6], less than 50 nM; in experiment [8], less than 50 nM; in experiment [9] it was greater than 500 nM; in [10], less than 50 nM. In [11], the TPM3-NTRK1-wt/CD74-ROS1-G2032R selectivity ratio entry is given as “A (bin A for very high selectivity, ratio >30-fold)”. The TPM3-NTRK1-wt/CD74-ROS1-wt selectivity ratio entry in experiment [11] was “A (bin A for very high selectivity, ratio >30-fold)”. The TPM3-NTRK1-wt/EML4-ALK-L1196M-G1202R selectivity ratio result in experiment [11] is given as “C (bin C for moderate selectivity, ratio ≥1)”. The TPM3-NTRK1-wt/EML4-ALK-wt selectivity ratio result in experiment [11] was “A (bin A for very high selectivity, ratio >30-fold)”.

For the molecule `CCn1nc(Cl)c2c1-c1cnc(N)c(c1)O[C@H](C)c1cc(F)ccc1-c1oc(C)nc1C2` [Example 84, (19R)-5-chloro-3-ethyl-16-fluoro-10,19-dimethyl-11,20-dioxa-3,4,9,23-tetraazapentacyclo[19.3.1.0^2,^6.0^8,^12.0^13,^18]pentacosa-1(24),2(6),4,8(12),9,13,15,17,21(25),22-decaen-22-amine], the IC50 in experiment [1] is greater than 500 nM; in experiment [2] it was 50 to 500 nM; in [4], 0.1 to 50 nM; in experiment [5], 50 to 500 nM; in experiment [7] it was 0.1 to 50 nM. For the same molecule, the Ki in experiment [3] was less than 50 nM; in [6], less than 50 nM; in [8], less than 50 nM; in [9], greater than 500 nM; in experiment [10], less than 50 nM. Moreover, in experiment [11], the TPM3-NTRK1-wt/CD74-ROS1-G2032R selectivity ratio entry is “A (bin A for very high selectivity, ratio >30-fold)”. The TPM3-NTRK1-wt/CD74-ROS1-wt selectivity ratio entry in [11] is given as “A (bin A for very high selectivity, ratio >30-fold)”. The TPM3-NTRK1-wt/EML4-ALK-L1196M-G1202R selectivity ratio result in experiment [11] is on record as “C (bin C for moderate selectivity, ratio ≥1)”. Also, the TPM3-NTRK1-wt/EML4-ALK-wt selectivity ratio result in [11] was “B (bin B for high selectivity, ratio >10-fold)”.

For `C[C@H]1Oc2cc(cnc2N)-c2c(c(Cl)nn2CC2CC2)Cc2nn(C)nc2-c2ccc(F)cc21` [Example 85, (19R)-5-chloro-3-(cyclopropylmethyl)-16-fluoro-10,19-dimethyl-20-oxa-3,4,9,10,11,23-hexaazapentacyclo [19.3.1.0^2,^6.0^8,^12.0^13,^18]pentacosa-1(24),2(6),4,8,11,13,15,17,21(25),22-decaen-22-amine], the concentration for half-maximal inhibition (IC50) is greater than 500 nM in experiment [1]; 0.1 to 50 nM in [2]; 0.1 to 50 nM in experiment [4]; 0.1 to 50 nM in experiment [5]; 0.1 to 50 nM in experiment [7]. Besides, the Ki in [3] was less than 50 nM; in experiment [6], less than 50 nM; in experiment [8], less than 50 nM; in [9], greater than 500 nM; in [10], less than 50 nM. For the same molecule, the TPM3-NTRK1-wt/CD74-ROS1-G2032R selectivity ratio result in experiment [11] was “A (bin A for very high selectivity, ratio >30-fold)”. For the same molecule, the TPM3-NTRK1-wt/CD74-ROS1-wt selectivity ratio result in [11] is reported as “A (bin A for very high selectivity, ratio >30-fold)”. The TPM3-NTRK1-wt/EML4-ALK-L1196M-G1202R selectivity ratio entry in experiment [11] was “A (bin A for very high selectivity, ratio >30-fold)”. Also, the TPM3-NTRK1-wt/EML4-ALK-wt selectivity ratio entry in [11] is “A (bin A for very high selectivity, ratio >30-fold)”.

(Values after US12054498B2, “Heteroaromatic macrocyclic ether chemotherapeutic agents” (Nuvalent, Inc., priority 2020, dated 2024).)
